Reference: ChEMBL document CHEMBL5523746, “Discovery of Novel Peptide Antagonists Targeting GPR55 for Liver Inflammation and Fibrosis” (2024)
Active and inactive are the calls of the source. The rule behind the calls is not given here. Bridge positions count the residues as written; N and C are the ends. Peptide text beside a SMILES is read from it.

Legend:
Mus musculus [1] = assay: In vivo anti-fibrotic activity against CCl4-induced liver fibrosis C57BL/6J mouse model assessed as decrease in pro-apoptotic protein caspase-8 level at 300 microg/kg once daily for 3 weeks by Western blot analysis; format: functional, organism-based; conditions: dose 300.0 µg/kg
Mus musculus [2] = assay: In vivo anti-fibrotic activity against CCl4-induced liver fibrosis C57BL/6J mouse model assessed as reduction in oxidative stress by measuring increase in superoxide dismutase at 150 to 300 microg/kg once daily for 3 weeks by enzyme activity assay; format: functional, organism-based; conditions: dose 150-300 µg/kg
Mus musculus [3] = assay: Induction of fatty acid beta-oxidation related gene expression in methionine and choline-deficient (MCD) diet-induced liver fibrosis C57BL/6J mouse model assessed as increase in ACOX mRNA level at 150 to 300 microg/kg once daily for 3 weeks by qPCR analysis; format: functional, organism-based; conditions: dose 150-300 µg/kg
Mus musculus [4] = assay: Induction of fatty acid beta-oxidation related gene expression in methionine and choline-deficient (MCD) diet-induced liver fibrosis C57BL/6J mouse model assessed as increase in MCAD mRNA level at 150 to 300 microg/kg once daily for 3 weeks by qPCR analysis; format: functional, organism-based; conditions: dose 150-300 µg/kg
Mus musculus [5] = assay: In vivo anti-fibrotic activity against methionine and choline-deficient (MCD) diet-induced liver fibrosis C57BL/6J mouse model assessed as reduction in hepatocyte apoptosis at 150 to 300 microg/kg once daily for 3 weeks by TUNEL assay; format: functional, organism-based; conditions: dose 150-300 µg/kg
Mus musculus [6] = assay: In vivo anti-fibrotic activity against methionine and choline-deficient (MCD) diet-induced liver fibrosis C57BL/6J mouse model assessed as reduction in inflammation by measuring decrease in CD68 inflammation marker at 150 to 300 microg/kg once daily for 3 weeks by IHC staining based assay; format: functional, organism-based; conditions: dose 150-300 µg/kg
Mus musculus [7] = assay: In vivo anti-fibrotic activity against CCl4-induced liver fibrosis C57BL/6J mouse model assessed as reduction in oxidative stress by measuring decrease in lipid oxidation product MDA at 150 to 300 microg/kg once daily for 3 weeks by enzyme activity assay; format: functional, organism-based; conditions: dose 150-300 µg/kg
Mus musculus [8] = assay: In vivo anti-fibrotic activity against CCl4-induced liver fibrosis C57BL/6J mouse model assessed as decrease in inflammation at 150 to 300 microg/kg once daily for 3 weeks by IHC staining based assay; format: functional, organism-based; conditions: dose 150-300 µg/kg
Mus musculus [9] = assay: Induction of fatty acid beta-oxidation related gene expression in methionine and choline-deficient (MCD) diet-induced liver fibrosis C57BL/6J mouse model assessed as increase in LCAD mRNA level at 150 to 300 microg/kg once daily for 3 weeks by qPCR analysis; format: functional, organism-based; conditions: dose 150-300 µg/kg
Mus musculus [10] = assay: In vivo anti-fibrotic activity against CCl4-induced liver fibrosis C57BL/6J mouse model assessed as liver function by measuring decrease in amino-transferase (ALT) at 150 to 300 microg/kg once daily for 3 weeks by Western blot analysis; format: functional, organism-based; conditions: dose 150-300 µg/kg
Mus musculus [11] = assay: In vivo anti-fibrotic activity against methionine and choline-deficient (MCD) diet-induced liver fibrosis C57BL/6J mouse model assessed as reduction in oxidative stress by measuring increase in catalase at 150 to 300 microg/kg once daily for 3 weeks by enzyme activity assay; format: functional, organism-based; conditions: dose 150-300 µg/kg
Mus musculus [12] = assay: In vivo anti-fibrotic activity against methionine and choline-deficient (MCD) diet-induced liver fibrosis C57BL/6J mouse model assessed as decrease in inflammatory infiltration and collagen deposition at 150 to 300 microg/kg once daily for 3 weeks by H and E staining based assay; format: functional, organism-based; conditions: dose 150-300 µg/kg
Mus musculus [13] = assay: Induction of fatty acid beta-oxidation related gene expression in methionine and choline-deficient (MCD) diet-induced liver fibrosis C57BL/6J mouse model assessed as increase in PPARalpha mRNA level at 150 to 300 microg/kg once daily for 3 weeks by qPCR analysis; format: functional, organism-based; conditions: dose 150-300 µg/kg
LX-2 = assay: Anti-fibrotic activity in human LX2 cells assessed as reduction in COL1alpha expression by measuring relative inhibition rate measured after 24 hrs incubation by Western blot analysis relative to control; format: functional; parameters: concentration or dose not given beside the values
Mus musculus [14] = assay: In vivo anti-fibrotic activity against CCl4-induced liver fibrosis C57BL/6J mouse model assessed as reduction in hepatocyte apoptosis by measuring decrease in BAX protein level at 300 microg/kg once daily for 3 weeks by TUNEL assay; format: functional, organism-based; conditions: dose 300.0 µg/kg
Mus musculus [15] = assay: In vivo anti-fibrotic activity against CCl4-induced liver fibrosis C57BL/6J mouse model assessed as increase in anti-apoptotic protein BCL2 level at 300 microg/kg once daily for 3 weeks by Western blot analysis; format: functional, organism-based; conditions: dose 300.0 µg/kg
Mus musculus [16] = assay: In vivo anti-fibrotic activity against methionine and choline-deficient (MCD) diet-induced liver fibrosis C57BL/6J mouse model assessed as decrease in inflammatory infiltration and collagen deposition at 150 to 300 microg/kg once daily for 3 weeks by Sirius Red staining based assay; format: functional, organism-based; conditions: dose 150-300 µg/kg
Mus musculus [17] = assay: Reduction in fatty acid synthesis related gene expression in methionine and choline-deficient (MCD) diet-induced liver C57BL/6J fibrosis mouse model assessed as reduction in FATP1 mRNA level at 150 to 300 microg/kg once daily for 3 weeks by qPCR analysis; format: functional, organism-based; conditions: dose 150-300 µg/kg
Mus musculus [18] = assay: In vivo anti-fibrotic activity against CCl4-induced liver fibrosis C57BL/6J mouse model assessed as decrease in steatosis and inflammation at 150 to 300 microg/kg once daily for 3 weeks by H and E staining based assay; format: functional, organism-based; conditions: dose 150-300 µg/kg
Mus musculus [19] = assay: Reduction in fatty acid synthesis related gene expression in methionine and choline-deficient (MCD) diet-induced liver fibrosis C57BL/6J mouse model assessed as reduction in FAS mRNA level at 150 to 300 microg/kg once daily for 3 weeks by qPCR analysis; format: functional, organism-based; conditions: dose 150-300 µg/kg
Mus musculus [20] = assay: In vivo anti-fibrotic activity against CCl4-induced liver fibrosis C57BL/6J mouse model assessed as decrease in pro-apoptotic protein CHOP level at 300 microg/kg once daily for 3 weeks by Western blot analysis; format: functional, organism-based; conditions: dose 300.0 µg/kg
Mus musculus [21] = assay: In vivo anti-fibrotic activity against CCl4-induced liver fibrosis C57BL/6J mouse model assessed as reduction in […] mRNA level at 150 to 300 microg/kg once daily for 3 weeks by RT-qPCR analysis; format: functional, organism-based; conditions: dose 150-300 µg/kg
Mus musculus [22] = assay: In vivo anti-fibrotic activity against methionine and choline-deficient (MCD) diet-induced liver fibrosis C57BL/6J mouse model assessed as reduction in ROS treated at 150 to 300 microg/kg once daily for 3 weeks by qPCR analysis; format: functional, organism-based; conditions: dose 150-300 µg/kg
Mus musculus [23] = assay: In vivo anti-fibrotic activity against CCl4-induced liver fibrosis C57BL/6J mouse model assessed as decrease in pro-apoptotic protein BIM level at 300 microg/kg once daily for 3 weeks by Western blot analysis; format: functional, organism-based; conditions: dose 300.0 µg/kg
Mus musculus [24] = assay: In vivo anti-fibrotic activity against CCl4-induced liver fibrosis C57BL/6J mouse model assessed as reduction in hepatocyte apoptosis by measuring increase in BAX protein in cytoplasm at 300 microg/kg once daily for 3 weeks; format: functional, organism-based; conditions: dose 300.0 µg/kg
Mus musculus [25] = assay: In vivo anti-fibrotic activity against CCl4-induced liver fibrosis C57BL/6J mouse model assessed as liver function by measuring decrease in serum hydroxyproline (HYP) at 150 to 300 microg/kg once daily for 3 weeks by bio-chemical analysis; format: functional, organism-based; conditions: dose 150-300 µg/kg
Mus musculus [26] = assay: In vivo anti-fibrotic activity against CCl4-induced liver fibrosis C57BL/6J mouse model assessed as liver function by measuring decrease in serum amino-transferase (ALT) at 150 to 300 microg/kg once daily for 3 weeks by bio-chemical analysis; format: functional, organism-based; conditions: dose 150-300 µg/kg
Mus musculus [27] = assay: In vivo anti-fibrotic activity against CCl4-induced liver fibrosis C57BL/6J mouse model assessed as decrease in alpha-SMA at 150 to 300 microg/kg once daily for 3 weeks by IHC staining based assay; format: functional, organism-based; conditions: dose 150-300 µg/kg

For `CC[C@H](C)[C@@H]1NC(=O)[C@H]([C@@H](C)O)NC(=O)[C@@H]2CCCN2C(=O)[C@H](CO)NC(=O)[C@H](CC(N)=O)NC(=O)[C@H](CCCCN)NC(=O)[C@H](CCCCN)NC(=O)[C@@H](N)CSSC[C@@H](C(=O)O)NC1=O` (H-CKKNSPTIC-OH; disulfide 1-9), the Activity (Mus musculus [1]) was “Active”, the Activity (Mus musculus [2]) was “Active” and the Activity (Mus musculus [3]) was “Active”. The Activity (Mus musculus [4]) was “Active”, the Activity (Mus musculus [5]) was “Active” and the Activity (Mus musculus [6]) was “Active”. The Activity (Mus musculus [7]) was “Active”, the Activity (Mus musculus [8]) was “Active” and the Activity (Mus musculus [9]) was “Active”. For the same molecule, the Activity (Mus musculus [10]) was “Active”, the Activity (Mus musculus [11]) was “Active” and the Activity (Mus musculus [12]) was “Active”. The Activity (Mus musculus [13]) was “Active”, the Activity (LX-2) was 40% and the Activity (Mus musculus [14]) was “Active”. The Activity (Mus musculus [15]) was “Active”, the Activity (Mus musculus [16]) was “Active” and the Activity (Mus musculus [17]) was “Active”. For the same molecule, the Activity (Mus musculus [18]) was “Active”, the Activity (Mus musculus [19]) was “Active” and the Activity (Mus musculus [20]) was “Active”. For the same molecule, the Activity (Mus musculus [21]) was “Active”, the Activity (Mus musculus [22]) was “Active” and the Activity (Mus musculus [23]) was “Active”. The Activity (Mus musculus [24]) was “Active”, the Activity (Mus musculus [25]) was “Active” and the Activity (Mus musculus [26]) was “Active”. For the same molecule, the Activity (Mus musculus [27]) was “Active”.
